Data published in patent publication EP0516015A1, “Substituted decarestrictines, methods for their preparation and use thereof” (HOECHST AKTIENGESELLSCHAFT, priority 1991, dated 1992).
≈ marks a conversion by molar mass, not a printed value.

Tests used:
[1] = system: Cholesterinbiosynthese; assay: Inhibition of cholesterol biosynthesis from [14C] sodium acetate in HEP-G2 cell monolayers; assay type: cell-based; conditions: Homo sapiens, HepG2, HEP-G2-Zellen, 1 h preincubation, 3 h with [14C] sodium acetate, read-out: Cholesterin in Prozent der Kontrolle; for activity at 0.01 µM: Konzentration 10⁻⁸ M
Source text: Monolayer von HEP-G2-Zellen in lipoproteinfreiem Nährmedium werden mit entsprechenden Konzentrationen der zu prüfenden Substanzen aus den Beispielen 1, 3, 4, 5, 6, 8 und 15 eine Stunde vorinkubiert. Nach Zugabe der ¹⁴C-markierten Biosynthesevorstufe [¹⁴C]Natriumacetat wird die Inkubation für 3 Stunden fortgesetzt. Danach wird ein Teil der Zellen alkalisch verseift, bei vorheriger Zugabe eines internen Standards von ³H-Cholesterin. Die Lipide der verseiften Zellen werden mit einem Gemisch aus Chloroform-Methanol extrahiert. Dieses Lipidgemisch wird nach Zusatz von Trägercholesterin präparativ dünnschichtchromatographisch aufgetrennt, die Cholesterinbande nach Anfärbung isoliert und die aus dem ¹⁴C-Precursor gebildete Menge ¹⁴C-Cholesterin szintigraphisch bestimmt. In einem aliquoten Teil der Zellen wurde Zellprotein bestimmt, sodaß die in der Zelleinheit pro mg Zellprotein aus ¹⁴C-Vorläufer gebildete Menge ¹⁴C-Cholesterin berechnet werden kann. Zum Vergleich für die Hemmwirkung eines zugesetzten Prüfpräparates dient die Kontrolle, so daß direkt die Hemmung der Cholesterinbiosynthese bei einer bestimmten molaren Konzentration des Prüfpräparates im Medium angegeben werden kann. In aliquoten Anteilen der Zellkultur wird die Intaktheit der Zellkultur und die fehlende Zellschädigung durch Präparateeinwirkung morphologisch (Lichtmikroskopie) beurteilt und biochemisch durch Bestimmung der Laktat-Dehydrogenase Ausschüttung im Inkubationsmedium gemessen. Als Standardpräparat wurde ®Lovastatin (Merck-Sharp-Dohm) benutzt.

[2] = in vitro; conditions: hela or vero cells
[3] = system: Herpes II; assay: Antiviral activity in cell culture (CPE, neutral red uptake); assay type: cell-based; conditions: HeLa or Vero cells, 72 h, MHK = concentration at which about 50 % of the cells survived the infection
[4] = system: Herpes I; assay: as above; assay type: cell-based; conditions: HeLa or Vero cells, 72 h, MHK = concentration at which about 50 % of the cells survived the infection
[5] = system: Vaccina; assay: microbe, parasite or virus in culture; assay type: cell-based; conditions: 72 h, read-out: MHK
[6] = system: Rhinovirus II; assay: Antiviral activity in cell culture (CPE, neutral red uptake); assay type: cell-based; conditions: Enterovirus; Rhino. II; HeLa or Vero cells, 72 h; MHK = concentration at which about 50 % of the cells survived the infection
[7] = system: Influenza A; assay: microbe, parasite or virus in culture; assay type: cell-based; conditions: 72 h, read-out: MHK

COC1C=CC(OC)C(OC)CC(=O)OC(C)C1 (stereo not shown) [Verbindung 3, 10-Methyl-4,5,8-trimethoxy-1-oxa-6-cyclodecen-2-on]
activity at 1 µM ([1]; Konzentration 10⁻⁶ M): 28% | activity at 0.01 µM [1]: 33%

CC1CC(O[C@H]2O[C@H](COCc3ccccc3)[C@@H](OCc3ccccc3)[C@H](OCc3ccccc3)[C@H]2OCc2ccccc2)CCC2OC(C)(C)OC2CC(=O)O1 (stereo partly drawn) [Verbindung 1, 4,5-Dihydroxy-O-isopropyliden-10-methyl-1-oxa-8(2,3,4,6-tetra-O-benzyl-α-D-glucopyranosyl-oxy)-2-cyclodecanon]
activity at 0.01 µM [1]: 41%

CC(=O)OC1CCC(O)C(O)CC(=O)OC(C)C1 (stereo not shown) [Verbindung 4, 8-Acetyloxy-4,5-dihydroxy-10-methyl-1-oxa-cyclodecan-2-on]
activity at 0.01 µM [1]: 45%

CC(=O)OC1/C=C/C(OC(C)=O)C(OC(C)=O)CC(=O)OC(C)C1 (stereo not shown) [Verbindung 6, 10-Methyl-1-oxa-4,5,8-triacetyloxy-6-cyclodecen-2-on]
MNTC at 72 h [2]: 133 µg/mL | activity at 10 µM ([1]; Konzentration 10⁻⁵ M): 32% | activity at 0.1 µM ([1]; Konzentration 10⁻⁷ M): 30% | EC50 [3]: 0.55 µg/mL (≈ 1.61 µM) | EC50 [4]: 0.55 µg/mL (≈ 1.61 µM) | EC50 [5]: 0.49 µg/mL (≈ 1.43 µM) | EC50 [6]: 44.4 µg/mL (≈ 130 µM) | EC50 [7]: 14 µg/mL (≈ 40.9 µM)

CC[C@H](C)C(=O)O[C@H]1C[C@@H](C)C=C2C=C[C@H](C)[C@H](CC[C@@H]3C[C@@H](O)CC(=O)O3)[C@H]21 [Lovastatin, reference compound]
activity at 0.01 µM [1]: 55%

CC1CC(OC=O)C=CC(O)C(O)CC(=O)O1 (stereo not shown) [Verbindung 8, 4,5-Dihydroxy-8-formyl-oxy-10-methyl-1-oxa-6-cyclodecen-2-on]
activity at 0.01 µM [1]: 67%

CC1CC(O)C2OC2C(O)C(O)CC(=O)O1 (stereo not shown) [Verbindung 5, 2-Carbonyl-10-methyl-1-oxa-4,5,8-trihydroxy-6-cyclodecenoxid]
activity at 0.01 µM [1]: 33%

CC1CC(O)CCC(O)C(O)CC(=O)O1 (stereo not shown) [Verbindung 15, 10-Methyl-1-oxa-4,5,8-trihydroxy-cyclodecan-2-on]
activity at 0.01 µM [1]: 73%
